Reference: paper PMC4619459, “Metabolism of β-valine via a CoA-dependent ammonia lyase pathway” (Applied Microbiology and Biotechnology, 2015)

Legend:
Type in all cases: biochemical
BvaB1-His [1] = molecular target: T1, BvaB1-His (Pseudomonas sp. SBV1, UniProt A0A0C4UTI5); assay: UPLC-MS (m/z […]) and HPLC; details: substrate made in situ by BvaA-His, not purified; 50 mM HEPES, 150 mM NaCl, 5 mM MgCl2, pH 8
T1 sequence (A0A0C4UTI5 1-253): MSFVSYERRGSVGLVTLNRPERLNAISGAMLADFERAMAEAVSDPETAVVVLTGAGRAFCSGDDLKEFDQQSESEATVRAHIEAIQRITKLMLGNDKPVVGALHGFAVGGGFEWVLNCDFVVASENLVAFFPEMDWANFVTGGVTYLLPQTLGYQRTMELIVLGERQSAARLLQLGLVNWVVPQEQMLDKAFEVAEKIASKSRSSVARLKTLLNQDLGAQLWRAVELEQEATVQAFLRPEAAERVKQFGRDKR

BvaB2-His [2] = molecular target: T2, BvaB2-His (Pseudomonas sp. SBV1, UniProt A0A0C4USU5); assay: UPLC-MS (m/z […]) and HPLC; details: substrate made in situ by BvaA-His, not purified; 50 mM HEPES, 150 mM NaCl, 5 mM MgCl2, pH 8
T2 sequence (A0A0C4USU5 1-266): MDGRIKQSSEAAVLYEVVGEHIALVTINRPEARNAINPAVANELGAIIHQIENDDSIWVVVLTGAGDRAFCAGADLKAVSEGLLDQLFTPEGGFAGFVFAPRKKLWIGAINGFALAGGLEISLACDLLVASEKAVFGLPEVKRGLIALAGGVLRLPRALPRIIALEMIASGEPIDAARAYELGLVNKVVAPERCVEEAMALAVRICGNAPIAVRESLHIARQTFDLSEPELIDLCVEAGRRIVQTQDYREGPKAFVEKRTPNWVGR

BvaA-His [3] = molecular target: T3, BvaA-His (Pseudomonas sp. SBV1, UniProt A0A0C4UT64); assay: UPLC-MS of CoA adduct; HPLC of AMP formation; details: 5 mM ATP, 2.5 mM CoA, 5 mM MgCl2, 50 mM HEPES, 150 mM NaCl, pH 8, 30 °C
T3 sequence (A0A0C4UT64 entry or part of it): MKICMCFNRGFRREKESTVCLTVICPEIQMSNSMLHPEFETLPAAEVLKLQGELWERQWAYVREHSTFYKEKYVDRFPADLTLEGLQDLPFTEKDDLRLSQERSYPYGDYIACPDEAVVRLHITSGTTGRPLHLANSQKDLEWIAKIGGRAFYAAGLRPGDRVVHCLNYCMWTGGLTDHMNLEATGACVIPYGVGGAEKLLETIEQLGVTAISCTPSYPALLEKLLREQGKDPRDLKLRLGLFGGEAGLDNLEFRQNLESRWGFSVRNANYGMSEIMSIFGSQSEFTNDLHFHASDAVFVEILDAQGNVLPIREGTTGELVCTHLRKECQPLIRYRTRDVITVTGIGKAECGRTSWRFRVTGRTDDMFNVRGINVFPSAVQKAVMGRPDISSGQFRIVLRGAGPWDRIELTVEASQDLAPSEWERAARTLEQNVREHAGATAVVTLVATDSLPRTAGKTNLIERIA

BvaB2-His [4] = molecular target: T2, BvaB2-His; assay: HPLC of substrate depletion; UPLC-MS; details: substrate made in situ by BvaA-His, not purified; 50 mM HEPES, 150 mM NaCl, 5 mM MgCl2, pH 8
BvaB1-His [5] = molecular target: T1, BvaB1-His; assay: HPLC of substrate depletion; UPLC-MS; details: substrate made in situ by BvaA-His, not purified; 50 mM HEPES, 150 mM NaCl, 5 mM MgCl2, pH 8
BvaA-His [6] = molecular target: T3, BvaA-His; assay: HPLC of AMP formation; details: 2.5 mM β-valine, 2.5 mM CoA, 5 mM MgCl2, 50 mM HEPES, 150 mM NaCl, pH 8, 30 °C

Q: `CC(C)=CC(=O)SCCNC(=O)CCNC(=O)[C@H](O)C(C)(C)COP(=O)(O)OP(=O)(O)OC[C@H]1O[C@@H](n2cnc3c(N)ncnc32)[C@H](O)[C@@H]1OP(=O)(O)O` [3-methyl-crotonyl-CoA] was tested. Which “UPLC-MS (m/z 849) and HPLC” value (BvaB1-His [1]) did it give?
A: This parent ion was observed in a mixture containing either BvaB1-His or BvaB2-His

Q: And the “UPLC-MS (m/z 849) and HPLC” value (BvaB2-His [2])?
A: This parent ion was observed in a mixture containing either BvaB1-His or BvaB2-His

Q: For `CC(C)(N)CC(=O)O` [β-valine], which “UPLC-MS of CoA adduct; HPLC of AMP formation” value (BvaA-His [3]) is on record?
A: both the β-valinyl-CoA and the AMP levels increased in time

Q: `CC(C)(N)CC(=O)SCCNC(=O)CCNC(=O)[C@H](O)C(C)(C)COP(=O)(O)OP(=O)(O)OC[C@H]1O[C@@H](n2cnc3c(N)ncnc32)[C@H](O)[C@@H]1OP(=O)(O)O` [β-valinyl-CoA] was tested. Which “HPLC of substrate depletion; UPLC-MS” value (BvaB2-His [4]) did it give?
A: both expected β-valinyl-CoA ammonia lyases are able to convert β-valinyl-CoA to 3-methyl-crotonyl-CoA

Q: What about the “HPLC of substrate depletion; UPLC-MS” value (BvaB1-His [5]) of the same compound?
A: both expected β-valinyl-CoA ammonia lyases are able to convert β-valinyl-CoA to 3-methyl-crotonyl-CoA

Q: For `Nc1ncnc2c1ncn2[C@@H]1O[C@H](COP(=O)(O)OP(=O)(O)OP(=O)(O)O)[C@@H](O)[C@H]1O` [ATP], which “HPLC of AMP formation” value (BvaA-His [6]) is on record?
A: able to convert β-valine to β-valinyl-CoA in an ATP- and CoA-dependent manner
